Assay [1] concerns bovine cartilage explants. Description: Load-induced chondrocyte apoptosis (TUNEL) in mechanically injured bovine cartilage explants. As to conditions: for Mean (±SD) apoptosis rates, Loaded + Agent: bovine femoral condyle cartilage, loaded at 23 MPa, rate = percentage of TUNEL positive cells, n = 8 to 10. The format is cell-based. An excerpt:
Macroscopically normal weight bearing portions of freshly slaughtered skeletally mature bovine femoral condyles were selected from animals between 2 and 6 years of age (Animal Technologies, Austin, Tex.). Only joints without visible signs of degeneration or aging were selected. Using sterile techniques, fall thickness cartilage was separated from underlying subchondral bone with a scalpel and 5 mm diameter cylindrical explants, ranging from 1 to 1.8 mm in height, cored out using a dermal punch (Acuderm, Inc., Ft. Lauderdale, Fla.). Explants taken from adjacent sites were used as matched controls for each group in each experiment to minimize variation in cartilage response due to differences in thickness and location within the joint. Each explant was weighed and allowed to stabilize at 37° C. and 5% CO2 for 48 hours in 1 ml of Dulbecco's modified Eagle's medium (DMEM) supplemented with 10% fetal bovine serum (FBS), L-glutamine, antibiotics and 50 μg/ml ascorbic acid.
Full thickness bovine cartilage explants, 5 mm in diameter, were subjected to a single static mechanical load of 7, 14 or 23 MPa for 500 msec. This model simulates traumatic cartilage injury and the loads were similar in magnitude to those generated during traumatic joint injury. Glycosaminoglycan (GAG) release and percent apoptotic cells were measured. The effect of a pan-caspase inhibitor, z-VAD.fmk [benzyloxycarbonyl-Val-Ala-Asp (OMe) fluoromethylketone] in preventing chondrocyte apoptosis was determined. z-VAD.fmk is a fluoromethylketone irreversible inhibitor of a broad spectrum of caspases. […] The percentage of apoptotic chondrocytes was related to load intensity and correlated with the level of GAG release from cartilage. […] This identifies a new approach to limit traumatic cartilage injury and the subsequent development of secondary osteoarthritis.
A model to simulate acute joint injury was used in this study based on injury models reported by Repo and Finlay, and Jeffrey et al. (Repo, et al. (1977) J. Bone Joint Surg. Am. 59A, 1068-1076, Jeffrey, et al. (1995) Arch. Biochem. Biophys. 322, 87-96). Although these reported models impacted cartilage using drop towers, a more controlled method was chosen for applying and maintaining stress or strain as follows. An Instron 8511 servohydraulic testing machine (Instron Corporation, Boston, Mass.) was used to mechanically load the cartilage explants. Explants were transported from the incubator to the Instron machine in sealed cell culture dishes. The explant was centralized on a stainless steel loading platform and a radially unconfined compressive load was applied through an impermeable stainless steel platen. A small preload (0.1 MPa) was applied for 2 minutes, followed by a single 500 msec trapezoidal loading waveform at the selected stress. The stress rose from 0.1 MPa to the chosen stress level in 100 msec and was maintained for 500 msec. Three stress levels were chosen to represent acute joint injury. 7 MPa has been reported to be the upper limit of physiologic stress developed during activities of daily living (von Eisenhart, et al. (1999) J. Orthop. Res. 17, 532-539). 23 MPa is the stress above which the underlying bone has been reported to fracture (Haut (1989) J. Orthop. Res. 7, 272-280). Control explants were placed in the loading apparatus but not loaded. Both control and loaded explants were re-cultured in fresh culture media immediately after loading. Stress and strain data were recorded during the test. […]

The test system of assay [2] is human cartilage explants. The assay is described as follows: Load-induced chondrocyte apoptosis (TUNEL) in mechanically injured human cartilage explants. Conditions: for Mean (±SD) apoptosis rates, Loaded + Agent: human cartilage (femoral condyles and tibial plateaus), n = 8 to 10. The assay is classed as cell-based. An excerpt:
Macroscopically normal tibial and femoral articular surfaces were selected from human cadaver donors between 18 and 45 years of age. Using sterile techniques, full thickness cartilage was separated from underlying subchondral bone with a scalpel. 5 mm diameter cylindrical explants, ranging from 2 to 2.8 mm in thickness, cored out using a dermal punch (Acuderm, Inc., Ft. Lauderdale, Fla.). Explants taken from adjacent sites were used as matched controls for each group in each experiment to minimize variation in cartilage response due to differences in thickness and location within the joint. Each explant was weighed and allowed to stabilize at 37° C. and 5% CO2 for 48 hours in Dulbecco's modified Eagle's medium (DMEM) supplemented with 5% fetal bovine serum (FBS), L-glutamine, antibiotics and […] ascorbic acid.
An Instron 8511 servohydraulic testing machine (Instron Corporation, Boston, Mass.) was used to mechanically load the cartilage explants. Explants were transported from the incubator to the Instron machine in sealed cell culture dishes. The total time duration of loading for a single experiment varied from approximately 1 to 2 hours depending on the number of samples. […] Stress and strain data were recorded during the test.
To determine whether caspase inhibitors could prevent apoptosis, explants were cultured in […] z-VAD.fmk (a broad spectrum caspase inhibitor) immediately after injury (30% strain level). Percentage apoptosis was measured at 96 hours post-injury in three groups (control, loaded, and loaded with z-VAD.fmk) with ten explants each in two separate experiments.
Explants loaded as described above were fixed in 10% buffered formalin. […] This was detected by immunohistochemical staining with M30 (Cytodeath, Boehringer Mannheim, Eugene, Oreg.), a monoclonal antibody that recognizes the neo-epitope exposed in early apoptosis.
In an additional study the apoptosis response of human articular cartilage to mechanical stress was examined. […] GAG release and percentage of cells undergoing apoptosis were measured at 96 hours after injury. […]

In assay [3] the test system is bovine cartilage explants. Description: Glycosaminoglycan (GAG) release assay (dimethylene blue) in injured bovine cartilage explants. The format is cell-based. Conditions: loaded, z-VAD.fmk 100 μM, 48 hours. As for the experimental part:
Glycosaminoglycan release assay. To estimate GAG depletion and release, the concentration of sulfated glycosaminoglycans was measured using 1,9-Dimethylene Blue (DMMB) as a monitor of spectrophotometric changes which occur during the formation of the sulfated GAG dye complex (Fardale, et al. (1986) Biochim. Biophys. Acts. 883, 173-177, Goldberg, et al. (1993) Agents Actions 39 Spec No, C163-C165). For GAG content measurement, samples were digested in papain and collagenase and the concentration of sulfated GAG measured using DMMB. To generate a standard curve, chondroitin-6-sulfate (Sigma, St. Louis, Mo.) was used at concentrations between 1 and 200 μg/ml. GAG released in media was normalized to the pooled mean GAG content of Control (uninjured) cartilage explants and expressed as a percentage of total GAG content.
To determine whether apoptosis could be prevented by caspase inhibition, 12 explants were loaded at 23 MPa (High Load) and cultured for 48 hours. […] Six more explants were used as non-loaded controls. Percent apoptosis and GAG release in media was measured as described above.
Release of sulfated glycosaminoglycans (GAG) was analyzed as a measure of the extent of damage sustained by the explant. […] GAG depletion was assessed by dimethylene blue binding assays of the culture supernatants and this correlated with the reduced of safranin O staining of the cartilage sections.

Assay [4] concerns rabbits with ligament transection. The assay is described as follows: Intraarticular injection of caspase inhibitor in rabbits with anterior cruciate ligament transection (ACLT). The format is in vivo, New Zealand White rabbits. As to the method: A pilot study was performed to assess feasibility and efficacy of caspase inhibition in vivo. Eight New Zealand White rabbits were divided into anterior cruciate ligament transection (ACLT) and ACLT+caspase inhibitor (CI) groups. Both groups underwent bilateral ACLT. The ACLT+CI group was treated with intra-articular injections of 25 μg of z-VAD.fmk three times per week for six weeks while the control group received saline injections. Rabbits were euthanised at six weeks and femoral and tibial articular cartilage evaluated by India ink staining and histologic Mankin grading after Safranin-O stain.
Histologically, more knees from the ACLT group had higher Mankin scores. 87% (⅞) ACLT knees had grades 5 or higher, while 50% ( 4/8) ACLT+CI knees were graded 5 or higher. The India ink stained femoral condyles were photographed and digital images were used to quantify the surface areas of the lesions.

Entries after “also recorded” stand apart in the source; their conditions may differ. Where a SMILES comes first, the peptide text is derived from it. The star is where a group is joined. Cbz = O=C(OCc1ccccc1)*; CH2F = FC*

As for `C[C@@H]1C[C@H]2[C@@H]3CCC4=CC(=O)C=C[C@]4(C)[C@@]3(F)[C@@H](O)C[C@]2(C)[C@@]1(O)C(=O)CO` [Dexameth.], the “Mean (±SD) apoptosis rates, Loaded + Agent” value (shortened to “Mean (±SD) apoptosis rates”) in assay [1] is listed as 47 (±11.2).
For `COC(=O)CC(NC(=O)C(C)NC(=O)C(NC(=O)OCc1ccccc1)C(C)C)C(=O)CF` (stereo not drawn) [z-VAD.fmk, benzyloxycarbonyl-Val-Ala-Asp (OMe) fluoromethylketone] (Cbz-Val-Ala-Asp(OMe)-CH2F; configuration not given here), the “reduction in the apoptosis rate” value in assay [1] (bovine explants, high and intermediate load groups, vs loaded without agent) is over 50%. For the same molecule, the “effect on chondrocyte apoptosis after mechanical injury” value in assay [1] (bovine explants, single static load, 500 msec) is recorded as “reduced chondrocyte apoptosis after mechanical injury”. The “Mean (±SD) apoptosis rates” value in assay [1] is 31 (±13.9); in assay [2] (loaded at 23 MPa (footnote *)) it was 34 (±10.2)*. Further, the “reduction in apoptosis rates” value in assay [2] (human explants, 30% strain, cultured in 100 mM z-VAD.fmk after injury, 96 hours post-injury, p<0.05) stood at 50%. The “effect on GAG release / GAG depletion after mechanical injury” value in assay [3] was “reduction in GAG release; also recorded: normalization of the GAG depletion”. The “reduction of the size (surface area) of the cartilage lesions” value in assay [4] (rabbit ACLT, India ink stained femoral condyles, digital images, six weeks, 25 μg intra-articular three times per week) was about 80%. Also, the “India ink grade of cartilage lesions” value in assay [4] (rabbit ACLT, six weeks, 25 μg intra-articular three times per week (ACLT saline: grade III to IVa)) was “ranged from II (minimum fibrillation), with only one rabbit (two knees) having a Grade III to IVa lesion”. The “area of cartilage lesions under India ink examination” value in assay [4] (rabbit ACLT, six weeks, vs ACLT saline group) is given as “lesions that were smaller in area”. Besides, the “knees with histologic Mankin grades 5 or higher” value in assay [4] (rabbit bilateral ACLT, 25 μg intra-articular three times per week for six weeks, 4/8 knees (ACLT saline 87%)) was found to be 50%.
For “IGF-1: agent tested for pharmacologic modulation of apoptosis after cartilage injury in vitro”, the “Mean (±SD) apoptosis rates” value in assay [1] is recorded as 42 (±10.9); in assay [2] (loaded at 30% strain), 10 (±6.2).
